Experiment [1] has as its system K562. Kind of experiment: Cytotoxicity against human K562 cells. The settings on record: read-out: LC50 (the source's name). The format is functional.
Experiment [2] deals with Phospholipase A2 (Homo sapiens) (UniProt P04054). The experiment in a line: Inhibition of PLA2 at 50 ug/mL.

Structures are written as SMILES. ≈ marks a conversion by molar mass, not a printed value.

In ChEMBL document CHEMBL1151318, “New secosteroids from a gorgonian of the genus Muricella” (1998) one finds CC50 and inhibition data, which are given here for five compounds.

Chain of Phospholipase A2 (Homo sapiens) (P04054 23-148 limits assumed): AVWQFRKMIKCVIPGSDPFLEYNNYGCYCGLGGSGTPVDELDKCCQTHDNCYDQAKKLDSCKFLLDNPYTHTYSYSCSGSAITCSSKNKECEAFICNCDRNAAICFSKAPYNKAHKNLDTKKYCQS

Turning to `Cc1ccc(O)cc1CC[C@@H]1C(=O)CC[C@]2(C)[C@@H]([C@H](C)CCCC(C)C)[C@@H](O)C[C@@H]12` [CALICOFEROL I], the CC50 in experiment [1] amounted to 9.6 µg/mL (≈ 23.2 µM).
As usually defined, the inhibition is the percentage by which the read-out fell short of the control. The compound `Cc1ccc(O)cc1CC[C@@H]1[C@H](O)CC[C@]2(C)[C@@H]([C@H](C)CCCC(C)C)CC[C@@H]12` [ASTROGORGIADIOL] returned an inhibition in experiment [2] of 47%. For the same compound, in experiment [1], the CC50 was 12.1 µg/mL (≈ 30.2 µM).
Turning to `CC(C)=CCC[C@@H](C)[C@H]1CC[C@H]2[C@H](CCc3cc(O)ccc3C)[C@H](O)CC[C@]12C` [CALICOFEROL G], in experiment [2], the inhibition stood at 55%. For the same compound, in experiment [1], the CC50 was 2.1 µg/mL (≈ 5.27 µM).
Take `Cc1ccc(O)cc1CC[C@@H]1[C@H](O)CC[C@]2(C)[C@@H]([C@H](C)/C=C/C(C)C(C)C)CC[C@@H]12` (stereo partly drawn) [CALICOFEROL F]: the CC50 in experiment [1] amounted to 3.2 µg/mL (≈ 7.75 µM).
In the case of `Cc1ccc(O)cc1CC[C@@H]1[C@H](O)CC[C@]2(C)[C@@H]([C@H](C)/C=C/C(C)C)CC[C@@H]12` [CALICOFEROL H], in experiment [2], the inhibition amounted to 67%. Further, in experiment [1], the CC50 stood at 10.7 µg/mL (≈ 27.8 µM).
